These results are taken from patent US11180510B2, “Xanthine derivatives and uses thereof as inhibitors of bromodomains of BET proteins” (Centre national de la recherche scientifique, priority 2017, dated 2021).

Experiment [1] has as its target T1, Brdt(BD1) (Homo sapiens, UniProt Q58F21).
T1 construct: GST tagged bromodomain proteins were purchased from BPS Bioscience; purchased BPS Bioscience
The experiment can be described thus: HTRF BET selectivity profile, Brdt(BD1). It is filed as binding. In a few lines:
(§1)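 HTRF peptide-displacement assay with GST-tagged bromodomains and histone peptide, 0.5% final DMSO, incubated 3 h, 6 h or overnight at room temperature or 4 °C depending on bromodomain. 665/620 nm ratio read; inhibition scaled between DMSO and no-peptide controls, IC50 in triplicate.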
Background: In TR-FRET formats the signal depends on donor and acceptor labels being close together.

For experiment [2], the target named is T2, Brd4(BD2) (Homo sapiens, UniProt O60885).
T2 construct: GST tagged bromodomain proteins were purchased from BPS Bioscience; purchased BPS Bioscience
Description: HTRF BET selectivity profile, Brd4(BD2). It is filed as binding. In a few lines:
as §1

The target of experiment [3] is T3, BRD4(BD1) (Homo sapiens, UniProt O60885). Description: Isothermal Titration Calorimetry. It is filed as binding. Conditions: Brd4 (BD1), FIG. 1; read-out: KD by ITC (orthogonal assay). In a few lines: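 […]; general protocol uses 13 injections at 25° C, with protein titrant at 10–15× the compound concentration. Integrated heats fitted to a one-site model for ΔH and KA, with ΔG and TΔS derived from these.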
On the technique in general: ITC needs no label: the signal is the heat of the interaction.

Experiment [4] deals with T3, BRD4(BD1). The experiment can be described thus: Thermal shift assay (BromoMELT), Brd4 (BD1). It is filed as binding. The settings on record: compound at 25 μM, cut-off +/−3.5° C. How it is done: (§2) FIG. 3. Thermal Shift Assay (TSA) of 43c. The evaluation was performed on 61 bromodomains. A cut-off at +/−3.5° C. was set.
(§3) TSA “Bromoscan” assays (Reaction Biology) were performed in 384 well RT-PCR plate (BioRad) with a total working volume of 15 μL. The “BromoMelT™, containing the 61 GST- or His-tagged-bromodomains, SYPRO® Orange and a mix compounds as control, was purchased from Reaction Biology. For each point, 3 μL of protein (1×) and 12 μL master mix (buffer+SYPRO® Orange+compound at 25 μM or control mix compounds or DMSO (0.5%)) were mixed in plate. The plate was placed in a CFX384 RTQPC (BioRad), and heated 10 seconds at 25° C., then the temperature was increased from 25° C. to 90° C., by increment of 0.5° C. every 30 seconds. The fluorescence was recorded using FRET filters.

Experiment [5] deals with 61 bromodomains. Description: Thermal shift assay selectivity profile on 61 bromodomains. It is filed as binding. The settings on record: compound at 25 μM, 25 µM. How it is done: as §2, §3
For experiment [6], the system named is c-Myc. Description: c-Myc HTRF, Jurkat cell line. It is filed as cell-based, human. The protocol: (§4) For additional evaluation of the effect of 43c in cell assays, an influence of the molecule on c-Myc expression was determined by c-Myc HTRF. c-Myc is a proto-oncogene that is often overexpressed in cancer. This leads to the increased expression of many genes, involved in cell proliferation, contributing to cancer development. Downregulation of c-Myc is considered as a promising approach for anticancer treatment.

In experiment [7] the test system is c-Myc. Description: c-Myc HTRF, CEM cell line. It is filed as cell-based. The protocol: as §4
In experiment [8] the target is Brd3(BD1) (Homo sapiens, UniProt Q15059). The experiment can be described thus: HTRF BET selectivity profile, Brd3(BD1). It is filed as binding. More on the design: GST tagged bromodomain proteins were purchased from BPS Bioscience; purchased BPS Bioscience.

“Also recorded” adds a separate entry of the source.

Brd3(BD1), sequence (Q15059 34-140 limits assumed): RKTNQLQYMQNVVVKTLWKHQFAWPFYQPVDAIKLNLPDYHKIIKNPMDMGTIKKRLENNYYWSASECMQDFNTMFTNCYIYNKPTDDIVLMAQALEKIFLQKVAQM

As usually defined, the IC50 is the point on the concentration scale where inhibition reaches its midpoint. Read a low IC50 as greater potency in that assay. The term Kd denotes the equilibrium constant for the complex coming apart. One may read the ΔTm as the change in melting temperature against a reference sample. On to `CCn1cnc2c1c(=O)[nH]c(=O)n2Cc1ccc(CNS(=O)(=O)c2ccc(OC3CCOCC3)c(F)c2)cc1` [Compound 43c], for which the IC50 in experiment [1] worked out at 352 nM; in experiment [2], 2310 nM; in experiment [8] it was 132 nM. Also, in experiment [3], the Kd worked out at 90 nM. In addition, the ΔTm at 25 µM in experiment [4] came to 5.25 °C. For the same compound, the “Bromodomain selectivity profile by thermal shift assay” value in experiment [5] was “stabilize only BET proteins; also recorded: stabilizes only BRD4 (BD1) and BRD3 (BD1)”. Besides, in experiment [6], the “concentration at which c-Myc is downregulated, Jurkat” value was found to be 2.4 µM. Moreover, the “concentration at which c-Myc is downregulated, CEM” value in experiment [7] was 2.6 µM. Besides, the “Ratio 3-1 vs 3-2” value in experiment [8] (selectivity Brd3(BD1) vs Brd3(BD2), HTRF IC50) was 16.
